Reference: patent US12180204B1, “2-(benzo[d]thiazol-2-yl)-N′-(2-(5-phenyl-1,3,4-oxadiazol-2-ylthio)acetoxy)acetimidamide as an antimicrobial compound” (priority 2023, dated 2024)

Test system: Bacillus cereus, Staphylococcus aureus, Pseudomonas aeruginosa, Escherichia coli, Aspergillus flavus, Chrysosporium keratinophilum
Test: Agar plate disc-diffusion antimicrobial test
Type: cell-based
Conditions: disc wetted with 10 μL of 10 mg/mL in DMSO; 37° C., 48 h, 72 h for fungi; DMSO control zone subtracted
Experimental: The agar plate disc-diffusion method was applied. Sterilized filter papers (6 mm in diameter) were wetted with 10 μL of a solution of 2-(benzo[d]thiazol-2-yl)-N′-(2-(5-phenyl-1,3,4-oxadiazol-2-ylthio)acetoxy)acetimidamide (3) to be tested, containing 10 mg/mL in DMSO, and the discs were allowed to air dry. The discs were then placed onto the surface of agar plates (nutrient agar for bacteria and Sabouraud's dextrose agar for fungi) seeded with the test organism. Each plate contained 15 mL of the agar medium, previously seeded with 0.2 mL of the broth culture of each organism pregrown for 18 hours. The plates were incubated at 37° C. for 48 h, and 72 h for fungi. The inhibition zones were measured in mm. Discs impregnated with DMSO were used as a control, and its inhibition zone was subtracted from the tested compound actual inhibition zone. […] The antibacterial activity was screened against gram positive bacteria namely Bacillus cereus and Staphylococcus aureus and gram-negative bacterial strains namely Pseudomonas aeruginosa and Escherichia coli, while the antifungal activity was screened against Aspergillus flavus and Chrysosporium keratinophilum.

With `N/C(Cc1nc2ccccc2s1)=N\OC(=O)CSc1nnc(-c2ccccc2)o1` [compound 3, 2-(benzo[d]thiazol-2-yl)-N′-(2-(5-phenyl-1,3,4-oxadiazol-2-ylthio)acetoxy)acetimidamide] the “antimicrobial activities (inhibition zones)” value was “high antimicrobial activities”.
